Test results from US20240293367A1, “METHODS OF TREATING DISORDERS WITH A […]” (Cybin IRL Limited, priority 2023, published 2024).
Like-named read-outs stand apart in the source and are kept apart here.

How the values were obtained:
[1] = not given; remark: listed apart in the source
[2] = oral, equivalent doses, male Beagle dogs

For `[2H]C([2H])([2H])N(C([2H])([2H])[2H])C([2H])([2H])C([2H])([2H])c1c[nH]c2cccc(O)c12` [psilocin-d10, 3-(2-(bis(methyl-d3)amino)ethyl-1,1,2,2-d4)-1H-indol-4-ol], the “difference in systemic exposure versus psilocin” value (dogs) was about 30%, the “higher concentration (Cmax) compared to psilocin after psilocybin” value [2] was 31% and the “higher exposure (AUC) compared to psilocin after psilocybin” value [2] was 38%. The oral availability (oral, female dogs) was 91.3%, the bioavailability ([1]; Sprague Dawley, rat, in vivo, po) was about 60% and the “reduction in oral concentration (Cmax) in comparison to psilocin after psilocybin” value ([1]; oral, Sprague Dawley rats, molar dose-normalised) was 16%. For the same molecule, the “difference in systemic exposure versus psilocin” value ([1]; rats) was about 30%.
